Assay results as given in publication PMC8654833 (Scientific Reports, 2021).

What was measured:
5-HT5A = target: T1, 5-HT5A (Homo sapiens, UniProt P47898); assay: Radioligand binding competition dose-response (Euroscreen), 5-HT5A; conditions: dose-response study, maximal concentration 10 µM, [3H]LSD
T1 construct: Euroscreen FAST (contract assay)
Experimental: (§1) This study included binding assays (87 GPCR targets), measured as % of binding inhibition of a reference radioligand, as well as uptake and enzyme assays (19 targets), the latter measured as % inhibition of control enzyme activity. […] It was performed by radioligand binding competition by Euroscreen (Euroscreen FAST, Belgium). The following nanomolar concentrations were tested in duplicate: 0.001, 0.01, 0.1, 1, 10, 100, 1000, 10,000. Dose–response curves were fitted with the least squares method. IC50 results are shown as pIC50, corresponding to the negative log10 of IC50 in molar.

5-HT2A = 5-HT2A (Homo sapiens, UniProt P28223); assay: biochemical; conditions: read-out: %Binding inhibition at 10 µM
Experimental: as §1

DAT = target: T2, DAT (Homo sapiens, UniProt Q01959); assay: Radioligand binding competition dose-response (Euroscreen), dopamine transporter; conditions: dose-response study, maximal concentration 10 µM, [3H]WIN 35,428; read-out: %Binding inhibition at 10 µM
T2 construct: Euroscreen FAST (contract assay)
Experimental: as §1

Ca^2+ channel, vs = assay: Radioligand binding competition dose-response (Euroscreen), Ca2+ channel verapamil site
Experimental: as §1

Ca^2+ channel, ds = assay: Radioligand binding competition dose-response (Euroscreen), Ca2+ channel diltiazem site
Experimental: as §1

T2 sequence (Q01959 whole entry, species assumed): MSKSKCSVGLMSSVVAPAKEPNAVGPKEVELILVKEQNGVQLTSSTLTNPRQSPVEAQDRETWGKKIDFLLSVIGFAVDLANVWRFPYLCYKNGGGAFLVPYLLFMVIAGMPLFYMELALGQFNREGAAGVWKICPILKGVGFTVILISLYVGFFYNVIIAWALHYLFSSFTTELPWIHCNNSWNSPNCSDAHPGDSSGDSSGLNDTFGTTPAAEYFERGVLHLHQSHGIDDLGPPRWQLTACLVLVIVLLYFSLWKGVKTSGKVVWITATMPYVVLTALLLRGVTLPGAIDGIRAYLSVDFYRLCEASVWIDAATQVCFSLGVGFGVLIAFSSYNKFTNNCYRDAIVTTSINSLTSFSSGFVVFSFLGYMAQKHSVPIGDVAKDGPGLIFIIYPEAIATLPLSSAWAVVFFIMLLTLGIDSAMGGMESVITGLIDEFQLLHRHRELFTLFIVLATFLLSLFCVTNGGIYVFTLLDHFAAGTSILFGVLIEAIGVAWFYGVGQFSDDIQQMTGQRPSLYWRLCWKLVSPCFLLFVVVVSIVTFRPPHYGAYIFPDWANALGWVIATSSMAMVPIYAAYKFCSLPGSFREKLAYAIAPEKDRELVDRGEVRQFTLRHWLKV
T1 sequence (P47898 whole entry, species assumed): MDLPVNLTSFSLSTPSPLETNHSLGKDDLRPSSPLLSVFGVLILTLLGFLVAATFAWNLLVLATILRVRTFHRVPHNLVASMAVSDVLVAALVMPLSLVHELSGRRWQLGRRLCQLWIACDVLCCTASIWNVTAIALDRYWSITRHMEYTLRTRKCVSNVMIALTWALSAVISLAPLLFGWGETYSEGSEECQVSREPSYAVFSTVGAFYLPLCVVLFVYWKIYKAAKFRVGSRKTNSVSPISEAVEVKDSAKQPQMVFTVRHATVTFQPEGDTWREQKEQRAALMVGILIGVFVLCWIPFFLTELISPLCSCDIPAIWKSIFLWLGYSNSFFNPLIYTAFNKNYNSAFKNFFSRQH
Sequence of 5-HT2A (P28223 whole entry, species assumed): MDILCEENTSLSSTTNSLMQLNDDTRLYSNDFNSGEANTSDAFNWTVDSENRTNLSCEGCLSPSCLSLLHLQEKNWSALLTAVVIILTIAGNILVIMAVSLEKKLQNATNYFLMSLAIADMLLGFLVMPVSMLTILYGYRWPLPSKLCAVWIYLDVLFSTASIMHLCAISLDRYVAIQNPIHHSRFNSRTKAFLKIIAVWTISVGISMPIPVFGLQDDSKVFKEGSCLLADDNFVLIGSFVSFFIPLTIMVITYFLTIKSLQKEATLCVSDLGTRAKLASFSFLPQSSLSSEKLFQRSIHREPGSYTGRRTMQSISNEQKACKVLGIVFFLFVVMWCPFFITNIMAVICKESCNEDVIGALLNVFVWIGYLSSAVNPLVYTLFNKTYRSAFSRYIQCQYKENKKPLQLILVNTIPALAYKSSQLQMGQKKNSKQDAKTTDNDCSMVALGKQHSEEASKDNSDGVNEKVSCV

SMILES: CSc1ccc2c(c1)C(N1CCN(C)CC1)Cc1ccccc1S2 (stereo not shown) [Methiothepin]
- %Binding inhibition at 10 µM (5-HT5A): 101.21%

SMILES: O=C(c1ccc(F)cc1)C1CCN(CCn2c(=O)[nH]c3ccccc3c2=O)CC1 [Ketanserin]
- inhibition at 10 µM (5-HT2A): 103%

SMILES: Fc1ccc(C(OCCN2CCN(CCCc3ccccc3)CC2)c2ccc(F)cc2)cc1 [GBR 12909]
- inhibition at 10 µM (DAT): 104%

SMILES: COc1ccc(CCN(C)CCCC(C#N)(c2cc(OC)c(OC)c(OC)c2)C(C)C)cc1OC (stereo not shown) [Methoxyverapamil]
- pIC50 (Ca^2+ channel, vs; [3H]D888 competition): 6.56
- %Binding inhibition at 10 µM (Ca^2+ channel, vs; dose-response study, maximal concentration 10 µM, [3H]D888): 112.06%

SMILES: COc1ccc([C@@H]2Sc3ccccc3N(CCN(C)C)C(=O)[C@@H]2OC(C)=O)cc1 [Diltiazem]
- pIC50 (Ca^2+ channel, ds; [3H]diltiazem competition): 4.79
- %Binding inhibition at 10 µM (Ca^2+ channel, ds; dose-response study, maximal concentration 10 µM, [3H]diltiazem): 116.63%
